Test results as given in the supplement of paper PMC13380429.

Key:
Settings in all cases: 72 h
Caco-2 [1] = assay: cell viability relative to DMSO; higher = less toxic
Calu-3 [2] = assay: as above
HepG2 [3] = assay: as above
U2OS [4] = assay: as above
Vero E6 [5] = assay: as above
Caco-2 [6] = assay: relative viability EC50 (midpoint between 100% and the lowest measured viability); higher = less toxic
Calu-3 [7] = assay: as above
HepG2 [8] = assay: as above
U2OS [9] = assay: as above
Vero E6 [10] = assay: as above
Caco-2 [11] = assay: drug sensitivity score (DSS) for viability; higher = more toxic; extreme values may be limits of the assay
Calu-3 [12] = assay: as above
HepG2 [13] = assay: as above
U2OS [14] = assay: as above
Vero E6 [15] = assay: as above

| Structure (SMILES) | cell viability (Caco-2 [1]; 1 nM) [%] | cell viability (Caco-2 [1]; 10 nM) [%] | cell viability (Caco-2 [1]; 100 nM) [%] | cell viability (Caco-2 [1]; 1000 nM) [%] | cell viability (Caco-2 [1]; 10000 nM) [%] | cell viability (Calu-3 [2]; 1 nM) [%] | cell viability (Calu-3 [2]; 10 nM) [%] | cell viability (Calu-3 [2]; 100 nM) [%] | cell viability (Calu-3 [2]; 1000 nM) [%] | cell viability (Calu-3 [2]; 10000 nM) [%] | cell viability (HepG2 [3]; 1 nM) [%] | cell viability (HepG2 [3]; 10 nM) [%] | cell viability (HepG2 [3]; 100 nM) [%] | cell viability (HepG2 [3]; 1000 nM) [%] | cell viability (HepG2 [3]; 10000 nM) [%] | cell viability (U2OS [4]; 1 nM) [%] | cell viability (U2OS [4]; 10 nM) [%] | cell viability (U2OS [4]; 100 nM) [%] | cell viability (U2OS [4]; 1000 nM) [%] | cell viability (U2OS [4]; 10000 nM) [%] | cell viability (Vero E6 [5]; 1 nM) [%] | cell viability (Vero E6 [5]; 10 nM) [%] | cell viability (Vero E6 [5]; 100 nM) [%] | cell viability (Vero E6 [5]; 1000 nM) [%] | cell viability (Vero E6 [5]; 10000 nM) [%] | relative viability EC50 (Caco-2 [6]) [µM] | relative viability EC50 (Calu-3 [7]) [µM] | relative viability EC50 (HepG2 [8]) [µM] | relative viability EC50 (U2OS [9]) [µM] | relative viability EC50 (Vero E6 [10]) [µM] | drug sensitivity score (Caco-2 [11]) | drug sensitivity score (Calu-3 [12]) | drug sensitivity score (HepG2 [13]) | drug sensitivity score (U2OS [14]) | drug sensitivity score (Vero E6 [15]) |
| --- | --- | --- | --- | --- | --- | --- | --- | --- | --- | --- | --- | --- | --- | --- | --- | --- | --- | --- | --- | --- | --- | --- | --- | --- | --- | --- | --- | --- | --- | --- | --- | --- | --- | --- | --- |
| O=C(Nc1ccccc1C(=O)Nc1ccc(CCO)cc1)c1ccc([N+](=O)[O-])cc1 [KS-176] | 94 | 94.8 | 87.9 | 97.5 | 90.6 | 100 | 87.9 | 98.1 | 102 | 91.5 | 94 | 95 | 96.3 | 95.2 | 83.2 | 96.7 | 104 | 97.6 | 97.8 | 93.4 | 98.2 | 102 | 99.2 | 92.6 | 93.1 | > 10 | > 10 | > 10 | > 10 | > 10 | 0 | 0 | 0.1 | 0 | 0 |
| N=C(N)NCCC[C@H](N)C(=O)O [L-arginine] | 97.6 | 114 | 96.9 | 107 | 98.9 | 104 | 95.7 | 104 | 99 | 99.3 | 95.3 | 96.5 | 95.5 | 96 | 89.4 | 105 | 94.9 | 99.6 | 94.6 | 101 | 97.2 | 99.2 | 102 | 103 | 102 | > 10 | > 10 | > 10 | > 10 | > 10 | 0 | 0 | 0 | 0 | 0 |
| N[C@@H](CS(=O)O)C(=O)O [L-cysteinesulfinic-acid] | 96.8 | 93.2 | 102 | 105 | 101 | 94 | 97.3 | 105 | 111 | 107 | 93.5 | 90.9 | 77.8 | 89.9 | 102 | 99.5 | 97.3 | 98.5 | 106 | 101 | 91 | 95.8 | 93.2 | 95.1 | 102 | > 10 | > 10 | > 10 | > 10 | > 10 | 0 | 0 | 0.2 | 0 | 0 |
